A short description of the experiment: Modulation of human wild-type APP695 expressed in SH-SY5Y cells assessed as inhibition of amyloid beta (1 to 42 residues) production measured after 24 hrs by ELISA. (An ELISA detects its analyte on a solid surface through an enzyme-linked reagent.)
What is called IC50 is the concentration at which inhibition is half-maximal. For the compound `CCN(CC)Cc1cc(NCCN2CCCCC2)cc(Nc2ccnc3cc(Cl)ccc23)c1`, the IC50 worked out at 13.8 µM.

For the compound `CCN(CC)Cc1cccc(Nc2ccnc3cc(Cl)ccc23)c1`, the IC50 stood at 10.4 µM. As to `CN1CCN(c2cc(Nc3ccnc4cc(Cl)ccc34)cc(N3CCN(C)CC3)c2)CC1`, the IC50 turned out to be 1.9 µM. With `CCN(CC)Cc1cc(Nc2ccnc3cc(Cl)ccc23)ccc1O` [Amodiaquin] the figure was 5.4 µM.

As for `O=C(NCCN1CCCCC1)c1cc(C(=O)NCCN2CCCCC2)cc(-c2ccccc2CN2CCCCC2)c1`, the IC50 was found to be 9.4 µM.

`CN(C)CCN(C)Cc1cc(NC(=O)CN2CCCCC2)cc(Nc2ccnc3cc(Cl)ccc23)c1`: the IC50 is 2.9 µM. For `Clc1ccc2c(Nc3cc(CN4CCOCC4)cc(NCCN4CCCCC4)c3)ccnc2c1` the value was 4.9 µM; for `O=C(NCCN1CCCCC1)c1cc(Nc2ccccc2CN2CCCCC2)cc(C(=O)NCCN2CCCCC2)c1`, 4.7 µM. Consider `CCN(CC)CCC[C@@H](C)Nc1ccnc2cc(Cl)ccc12` [Aralen], for which the IC50 worked out at 12.8 µM. Consider `Oc1c(CN2CCCC2)cc(Nc2ccnc3cc(Cl)ccc23)cc1CN1CCCC1`, for which the concentration for half-maximal inhibition (IC50) was 11.2 µM. With `O=C(CN1CCCCC1)Nc1cc(CN2CCOCC2)cc(Nc2ccnc3cc(Cl)ccc23)c1` the figure was 7.1 µM; with `c1ccc(Nc2cc(CNCCN3CCCCC3)cc(CNCCN3CCCCC3)c2)c(CN2CCOCC2)c1`, 7.9 µM. Regarding `c1ccc(Nc2cc(CNCCN3CCCCC3)cc(CNCCN3CCCCC3)c2)c(CN2CCCCC2)c1`, the IC50 was 6 µM. With `CCN(CC)Cc1cc(NC(=O)CN2CCCCC2)cc(Nc2ccnc3cc(Cl)ccc23)c1` the figure was 2.8 µM; with `CN(C)Cc1ccccc1Nc1cc(C(=O)NCCN2CCCCC2)cc(C(=O)NCCN2CCCCC2)c1`, above 10 µM.

For the origin of these results see BindingDB's records for doi:10.1016/j.bmc.2018.03.016 (University of Lille, 2018).
